Like-named read-outs stand apart in the source and are kept apart here.
Experiments:
pERK in Hela cells = assay: Phospho-ERK (p-ERK) assay in Hela cells; format: cell-based; settings: Homo sapiens, β-actin normalized
Method: This Example illustrates that exemplary compounds of the present invention prevent KRas-mediated GTP nucleotide exchange mediated by SOS1 to inhibit KRas activity, thereby inhibiting the generation of the downstream effector pERK.
Hela cells (23,000/w) were seeded in a black clear flat bottom 96-well cell culture plate (Corning, #3904) and incubated at 37° C. overnight. At day 2, cells were dosed with compounds of Formula (I) with a 10 μM starting concentration and serially diluted 3× for a total of 9 concentrations. The cells were incubated for 1 hour with the compounds solubilized in DMSO at 37° C. Cells were immediately fixed by adding 100 μL of 8% formaldehyde to all wells in a fume hood and the plates were incubated for 1 hr at room temperature. The formaldehyde was discarded from the plates and washed 5 times and each time for 5 min with 200 μL of Triton Washing Solution (0.1% Triton in PBS) each time to permeabilize the cells. Cells were then blocked with 150 μL of Odyssey blocking buffer (LI-COR Biosciences #927-50010) at room temperature on a shaker. The blocking buffer was discarded and 50 μL of primary antibodies pERK (cell signaling Technology #4370; Rabbit, 1:500) and β-actin (AF5001; Mouse, 1:2000) diluted in Odyssey blocking buffer was added. The plates were incubated overnight at 4° C. on a shaker.
On day 3, the primary antibody solution was removed. Each plate was washed 5× times with 200 μL of 1×PBST (PBS+0.1% Tween 20) and incubated with 50 μL of secondary antibodies: Anti-Rabbit (LI-COR Biosciences #926-32211) and Anti-Mouse (LI-COR Biosciences #68070) at 1:1000 dilution in Odyssey blocking buffer at room temperature on a shaker for 1 hour (protected from light). The secondary antibody solution as removed and each plate was washed with PBST 5× times. Any liquid remaining was discarded and the plate was imaged using the Licor Odyssey machine according to the manufacturer's instruction, using a set focus length at 3.5 mm and both 800 nm and 700 nm filters. The 3-actin normalized scan values for each well were divided by the average of vehicle wells to get the % of p-ERK inhibition. The IC50 values were then calculated with the Graph pad Prism software. In general, p-ERK IC50 data are in line with the PPI IC50 data.

[1] = target: KRAS-G12C/SOS1 interaction (Homo sapiens (Human), UniProt Q07889); assay: Protein-Protein Interaction (PPI) assay, SOS1-KRAS binding assay kit (HTRF)
Method: This Example illustrates that exemplary compounds of the present invention blockade the interaction of SOS1 to KRAS protein.
The ability of a compound of Formula (I) to block the interaction of SOS1 to KRAS was measured using a SOS1-KRAS binding assay kit (CAT #63ADK000CB16PEG, Cisbio). Utilizing HTRF (Homogeneous Time-resolved Fluorescence) technology, the assay enables simple and rapid characterization of compound and antibody blockers in a high throughput format. The interaction between Tag1-SOS1 and Tag2-KRAS-G12C is detected by using anti-Tag1-Terbium antibody (HTRF donor) and anti-Tag2-XL665 antibody (HTRF acceptor). When the donor and acceptor antibodies are brought into close proximity due to SOS1 and KRAS-G12C binding, excitation of the donor antibody triggers fluorescent resonance energy transfer (FRET) towards the acceptor antibody, which in turn emits specifically at 665 nm. This specific signal is directly proportional to the extent of KRAS-G12C/SOS1 interaction.
The assay was carried according to the manufacturer's instructions. Compounds at an initial concentration of 10 mM in DMSO were first serially diluted on a 384-well plate using assay buffer at a ratio of 1:3 for a total of 9 concentrations with each of a volume of 20 μL. Blank buffer was included as the negative control. The final compound solution was in the buffer solution with 1% DMSO. Then, in each well of a 384-well plate, a solution of 2 μL compound solution, 4 μL tagged SOS1 and KRAS (G12C) protein stocks, respectively, and 10 μM GTP was incubated for 15 min. 10 μL mixture of […] antibody and anti-Tag1-Terbium antibody was introduced to each individual well. After 2 hours incubation at room temperature, fluorescence readout was measured with a Pelkin Elmer multiple plate reader VICTOR Nivo.
Excitation was from over a range of 245-395 nm, and emission from the donor (emission 1) was detected at […] and emission from the acceptor (emission 2) was detected at (606.5-623.5) nm. The HTRF ratio was calculated using the formula: (emission 1 @665 nm/emission 2 @620 nm)×10000. Thus, compounds blocking KRAS-G12C/SOS1 interaction will cause a reduction in HTRF signal ratio. The IC50 values were then calculated with the Graph pad Prism software.

KRAS-G12C/SOS1 interaction, sequence (Q07889 whole entry, stated change not applied): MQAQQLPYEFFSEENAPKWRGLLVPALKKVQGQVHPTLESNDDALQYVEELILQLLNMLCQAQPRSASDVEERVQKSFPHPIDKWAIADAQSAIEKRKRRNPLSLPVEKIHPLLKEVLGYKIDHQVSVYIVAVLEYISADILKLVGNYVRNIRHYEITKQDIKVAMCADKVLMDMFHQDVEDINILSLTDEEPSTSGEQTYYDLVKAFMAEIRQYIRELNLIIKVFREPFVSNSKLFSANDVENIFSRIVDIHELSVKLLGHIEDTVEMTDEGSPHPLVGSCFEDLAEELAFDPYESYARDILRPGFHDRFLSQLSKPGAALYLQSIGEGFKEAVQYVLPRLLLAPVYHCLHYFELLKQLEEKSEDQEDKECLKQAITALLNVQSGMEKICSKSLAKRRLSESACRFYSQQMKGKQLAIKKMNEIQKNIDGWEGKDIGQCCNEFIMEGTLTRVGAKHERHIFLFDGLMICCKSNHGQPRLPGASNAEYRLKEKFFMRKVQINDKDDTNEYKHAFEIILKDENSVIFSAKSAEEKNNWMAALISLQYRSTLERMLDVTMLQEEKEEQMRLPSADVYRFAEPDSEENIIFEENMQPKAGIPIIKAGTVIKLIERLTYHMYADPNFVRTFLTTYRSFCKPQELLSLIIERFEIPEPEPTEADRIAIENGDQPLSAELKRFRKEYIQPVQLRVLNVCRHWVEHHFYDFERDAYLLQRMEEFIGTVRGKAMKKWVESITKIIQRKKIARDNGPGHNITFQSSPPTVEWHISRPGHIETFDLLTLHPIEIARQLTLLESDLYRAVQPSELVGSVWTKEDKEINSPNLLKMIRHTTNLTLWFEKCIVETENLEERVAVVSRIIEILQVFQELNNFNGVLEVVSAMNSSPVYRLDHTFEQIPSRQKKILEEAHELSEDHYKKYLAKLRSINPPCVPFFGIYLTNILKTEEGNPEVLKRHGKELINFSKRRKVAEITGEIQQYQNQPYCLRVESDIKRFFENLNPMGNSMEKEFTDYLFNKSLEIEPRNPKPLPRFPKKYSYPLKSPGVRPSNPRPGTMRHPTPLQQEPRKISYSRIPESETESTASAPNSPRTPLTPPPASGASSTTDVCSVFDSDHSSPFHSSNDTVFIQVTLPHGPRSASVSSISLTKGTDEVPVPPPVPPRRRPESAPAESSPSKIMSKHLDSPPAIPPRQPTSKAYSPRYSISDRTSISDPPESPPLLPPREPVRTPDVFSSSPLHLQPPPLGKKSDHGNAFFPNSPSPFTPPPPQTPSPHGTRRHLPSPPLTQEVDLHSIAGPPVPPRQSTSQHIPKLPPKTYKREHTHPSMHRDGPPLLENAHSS

| SMILES | IC50 (pERK in Hela cells; Table 1, 1 hour with compound) [nM] | IC50 ([1]; read-out: PPI Assay IC50) [nM] | IC50 (pERK in Hela cells; Table 2, 1 hour with compound) [nM] | IC50 [1] [nM] |
| --- | --- | --- | --- | --- |
| COCCN1CCN(C(=O)c2cc3c(N[C@H](C)c4cc(N)cc(C(F)(F)F)c4)nc(C)nc3n3ncnc23)CC1 [Example 4] | > 100 | < 100 | – | – |
| CCS(=O)(=O)N1CCC(c2cc3c(N[C@H](C)c4cccc(C(F)F)c4F)nc(C)nc3n3cnnc23)CC1 [Example 70] | – | – | > 100 | > 100 |
| Cc1nc(N[C@H](C)c2cccc(C(F)(F)F)c2C)c2cc(C(=O)N3CC4(COC4)C3)c3ncnn3c2n1 [Example 38] | > 100 | < 100 | – | – |
| CC(=O)N1CC=C(c2cc3c(N[C@H](C)c4cccc(C(F)F)c4F)ncnc3n3nnnc23)CC1 [Example 106] | < 100 | < 100 | – | – |
| C[C@@H](Nc1ncnc2c1cc(N1CCOC1=O)c1nncn12)c1cccc(C(F)F)c1F [Example 167] | < 100 | < 100 | – | – |
| C[C@@H](Nc1ncnc2c1cc(O[C@H]1CCOC1)c1nncn12)c1cccc(C(F)F)c1F [Example 88] | < 100 | < 100 | – | – |
| Cc1nc(N[C@H](C)c2cccc(C(F)F)c2F)c2cc(C(=O)N3CCS(=O)(=O)CC3)c3ncnn3c2n1 [Example 18] | > 100 | < 100 | – | – |
| COC1(c2cc3c(N[C@H](C)c4cccc(C(F)F)c4F)ncnc3n3nnnc23)CCN(C(C)=O)CC1 [Example 125] | < 100 | < 100 | – | – |
| Cc1nc(N[C@H](C)c2cc(N)cc(C(F)(F)F)c2)c2cc(C(=O)N3CCN(C)CC3)c3ncnn3c2n1 [Example 3] | < 100 | < 100 | – | – |
| Cc1nc(N[C@H](C)c2cccc(C(F)(F)F)c2F)c2cc(C(=O)N3CC4(COC4)C3)c3ncnn3c2n1 [Example 39] | > 100 | < 100 | – | – |
| Cc1nc2c(N3CCOCCC3=O)cc3c(N[C@H](C)c4cccc(C(F)F)c4F)ncnc3n2n1 [Example 158] | < 100 | < 100 | – | – |
| CC(=O)N1CCC(c2cc3c(N[C@H](C)c4cccc(C(F)F)c4F)nc(C)nc3n3cnnc23)C1 (stereo partly drawn) [Example 137] | > 100 | < 100 | – | – |
| Cc1nc(N[C@H](C)c2cccc(C(F)F)c2F)c2cc(C(=O)N(C)C)c3nncn3c2n1 [Example 50, (R)-4-((1-(3-(difluoromethyl)-2-fluorophenyl)ethyl)amino)-N,N,2-trimethyl-[1,2,4]triazolo[4′,3′:1,6]pyrido[2,3-d]pyrimidine-6-carboxamide] | > 100 | < 100 | – | – |
| Cc1nc(N[C@H](C)c2cccc(C(F)F)c2F)c2cc(C(=O)N3CCCC34CCOC4)c3ncnn3c2n1 (stereo partly drawn) [Example 31] | > 100 | < 100 | – | – |
| CC(=O)N1CCC(O)(c2cc3c(N[C@H](C)c4cccc(C(F)F)c4F)nc(C)nc3n3cnnc23)C1 (stereo partly drawn) [Example 109] | > 100 | < 100 | – | – |
| CC(=O)N1CC=C(c2cc3c(N[C@H](C)c4cccc(C(F)F)c4F)nc(C)nc3n3nnnc23)CC1 [Example 105] | < 100 | < 100 | – | – |
| Cc1nc(N[C@H](C)c2cccc(C(F)F)c2F)c2cc(C(=O)N3CC4(COC4)C3)c3nncn3c2n1 [Example 51] | > 100 | < 100 | – | – |

| SMILES | IC50 (pERK in Hela cells; Table 1, 1 hour with compound) [nM] | IC50 ([1]; read-out: PPI Assay IC50) [nM] | IC50 (pERK in Hela cells; Table 2, 1 hour with compound) [nM] | IC50 [1] [nM] |
| --- | --- | --- | --- | --- |
| CC(=O)N1CCC(O)(c2cc3c(N[C@H](C)c4cccc(C(F)F)c4F)ncnc3n3cnnc23)CC1 [Example 108] | < 100 | < 100 | – | – |
| Cc1nc(N[C@H](C)c2cccc(C(F)F)c2F)c2cc(C(=O)N3CCOCC3)c3ncnn3c2n1 [Example 11] | > 100 | < 100 | – | – |
| CC(=O)N1CCN(c2cc3c(N[C@H](C)c4cccc(C(F)F)c4F)ncnc3n3nnnc23)CC1 [Example 99] | < 100 | < 100 | – | – |
| Cc1nc(N[C@H](C)c2cccc(C(F)F)c2F)c2cc(C(=O)N3CC4(COC4)C3)c3ncnn3c2n1 [Example 27] | < 100 | < 100 | – | – |
| Cc1nc(N[C@H](C)c2cccc(C(F)F)c2F)c2cc(C(=O)N3C4CCC3CN(C)C4)c3ncnn3c2n1 [Example 37] | > 100 | < 100 | – | – |
| COC1(c2cc3c(N[C@H](C)c4cccc(C(F)F)c4F)nc(C)nc3n3cnnc23)CCN(C(C)=O)CC1 [Example 118, (R)-1-(4-(4-((1-(3-(difluoromethyl)-2-fluorophenyl)ethyl)amino)-2-methyl-[1,2,4]triazolo[4′,3′:1,6]pyrido[2,3-d]pyrimidin-6-yl)-4-methoxypiperidin-1-yl)ethan-1-one] | < 100 | < 100 | – | – |
| Cc1nc2c(C3(C(F)(F)F)CC3)cc3c(N[C@H](C)c4cccc(C(F)F)c4F)ncnc3n2n1 [Example 169, (R)—N-(1-(3-(difluoromethyl)-2-fluorophenyl)ethyl)-2-methyl-4-(1-(trifluoromethyl)cyclopropyl)-[1,2,4]triazolo[1′,5′:1,6]pyrido[2,3-d]pyrimidin-6-amine] | < 100 | < 100 | – | – |
| Cc1nc(N[C@H](C)c2cccc(C(F)F)c2F)c2cc(C(=O)N3C4CC3CN(C)C4)c3nnnn3c2n1 [Example 66] | > 100 | < 100 | – | – |
| CC(=O)N1CC=C(c2cc3c(N[C@H](C)c4cccc(C(F)F)c4F)nc(C)nc3n3cnnc23)CC1 [Example 100, (R)-1-(4-(4-((1-(3-(difluoromethyl)-2-fluorophenyl)ethyl)amino)-2-methyl-[1,2,4]triazolo[4′,3′:1,6]pyrido[2,3-d]pyrimidin-6-yl)-3,6-dihydropyridin-1(2H)-yl)ethan-1-one] | > 100 | < 100 | – | – |
| COC1(c2cc3c(N[C@H](C)c4cccc(C(F)F)c4F)nc(C)nc3n3cnnc23)CCN(C(C)=O)C1 (stereo partly drawn) [Example 120] | < 100 | < 100 | – | – |
| Cc1nc(N[C@H](C)c2cc(N)cc(C(F)(F)F)c2)c2cc(C(=O)N3CCN(CCO)CC3)c3ncnn3c2n1 [Example 5] | > 100 | < 100 | – | – |
| Cc1nc(N[C@H](C)c2cccc(C(F)F)c2F)c2cc(C(=O)N3CCN(C)CC3)c3ncnn3c2n1 [Example 19] | > 100 | < 100 | – | – |
| CC(=O)N1CCC(O)(c2cc3c(N[C@H](C)c4cccc(C(F)F)c4F)ncnc3n3nnnc23)CC1 [Example 113] | > 100 | < 100 | – | – |
| Cc1nc(N[C@H](C)c2cccc(C(F)F)c2F)c2cc(N3CCOCC3)c3nncn3c2n1 [Example 74, (R)—N-(1-(3-(difluoromethyl)-2-fluorophenyl)ethyl)-2-methyl-6-morpholino-[1,2,4]triazolo[4′,3′:1,6]pyrido[2,3-d]pyrimidin-4-amine] | > 100 | < 100 | – | – |
| COC1(c2cc3c(N[C@H](C)c4cc(N)cc(C(F)(F)F)c4)ncnc3n3cnnc23)CCN(C(C)=O)CC1 [Example 122] | < 100 | < 100 | – | – |
| C[C@@H](Nc1ncnc2c1cc(N1CCOCC1=O)c1nncn12)c1cc(N)cc(C(F)(F)F)c1 [Example 86] | < 100 | < 100 | – | – |

Source: patent publication US20250230159A1, “FUSED HETEROCYCLIC COMPOUNDS AS MODULATORS OF RAS SIGNALLING” (Shenzhen Ionova Life Science Co., Ltd., priority 2022, published 2025)
